Laboratory results published in PubChem BioAssay AID1963872 (Molecular Pharmacology Branch, DTP, NCI, 2024).

Tested on: KRAS patient-derived spheroids with HUVEC/MSC, viability
Experiment: Anticancer human tumor 519858-162-T-J1-PDC patient-derived colon adenocarcinoma cell line growth inhibition [KRAS2]
Conditions: for viability, T/C: stronger effect = lower value; active means viability on the fitted dose curve at most 10% of control; inactive means the rest
Excerpt: Multicellular complex tumor spheroid response to RAS pathway inhibitors in combination with a targeted agents in patient-derived cell lines with oncogenic KRAS variants from multiple cancer types
A high-throughput screen of multi-cell type tumor spheroids was designed to identify active combinations of targeted small molecules and KRAS pathway inhibitors. Complex spheroids include a stromal component modeled by human endothelial cells (HUVEC) and fibroblasts modeled by human mesenchymal stem cells (MSCs). The concentration ranges selected for each drug and investigational agent were based upon clinically achievable concentrations if the clinical Cmax of the agent was known.
Compounds. The drugs and investigational agents: BI-3406 (NSC825286), BAY-293 (NSC824723), batoprotafib (TNO155; NSC825523), sotorasib (AMG 510; NSC818433), MRTX1257 (NSC819558), elimusertib (BAY 1895344; NSC800525), molibresib (GSK525762; NSC774829), temuterkib (LY3214996; NSC803410), venetoclax (NSC766270), alisertib (NSC759677), olaparib (NSC753686), talazoparib (NSC767125), erdafitinib (NSC781556), ipatasertib (NSC767898), cabozantinib (NSC761068), nintedanib (NSC756659), abemaciclib (NSC768073), docetaxel (NSC628503), trametinib (NSC758246), and sapanisertib (NSC764658) were obtained from the National Cancer Institute (NCI) Developmental Therapeutics Program Chemical Repository. The FDA-approved anticancer drug set is available from the Developmental Therapeutics Program. […] The stock solutions were prepared in dimethyl sulfoxide (DMSO, Sigma-Aldrich, St. Louis, MO, cat. D2650) at 800-fold the tested concentration and stored at -70 degrees C prior to their use. All drugs and investigational agents were tested over a range starting from a high concentration at or near the clinical Cmax and decreasing in half-log increments. If the clinical Cmax for an agent had not been determined, the highest concentration tested was 10 microM.
Cell Culture. All cells were maintained in an incubator at 37 degrees C and 5% CO2 with 95% humidity. The PDC lines were cultured according to standard operating procedures established by the NCI PDMR (https://pdmr.cancer.gov/sops/default.htm). Briefly, all PDCs were thawed and cultured in Matrigel-coated flasks prepared with a working solution of 1X Ham's F-12 nutrient mix, without supplementation (Invitrogen, Waltham, MA, cat. 11765054), 100 U/mL penicillin-streptomycin (Invitrogen, cat. 15140122), and 2.5% Matrigel (Corning Inc., Corning, NY, cat. 354248) for the first three passages. All PDCs were cultured in complete DMEM/F-12 media containing advanced DMEM/F-12 (Invitrogen, cat. 12634028), 4.9% defined fetal bovine serum, heat inactivated (HyClone Laboratories Inc., Logan, UT, cat. SH30070.03HI), 389 ng/mL hydrocortisone (Sigma-Aldrich, cat. H4001), 9.7 ng/mL human EGF recombinant protein (Invitrogen, cat. PHG0313), 23.4 microg/mL adenine (Sigma-Aldrich, cat. A2786), 97.3 U/mL penicillin-streptomycin (Invitrogen, cat. 15140122), 1.9 mM L-glutamine (Invitrogen, cat. 25030081), and 9.7 microM Y-27632 dihydrochloride (Tocris Bioscience, Bristol, United Kingdom, cat. 1254). The PDCs were cultured in complete DMEM/F12 media without 9.7 microM Y-27632 dihydrochloride for at least two passages prior to the screen. The established cell line HOP-62 was cultured in RPMI 1640 medium, HEPES (Invitrogen, cat. 22400105) with 10% defined fetal bovine serum (HyClone Laboratories Inc., cat. SH30070.03) and 2 mM L-glutamine (Invitrogen, cat. 25030081). The pooled donor HUVEC were cultured in endothelial cell growth medium 2 (PromoCell, Heidelberg, Germany, cat. C-22011) and the hMSC were cultured in mesenchymal stem cell growth medium 2 (PromoCell, cat. C-28009). For all experiments, HUVEC and hMSC were used at passages </=5, while the malignant cell lines were used at passages </=15. […]

[1] = curve of first compound, second compound 0.1 µM
[2] = curve of first compound, second compound 0.316 µM
[3] = curve of first compound, second compound 1 µM
[4] = curve of first compound, second compound 3.16 µM
[5] = curve of first compound, second compound 10 µM
[6] = second compound 0.1 µM, first compound 0.000316 µM
[7] = second compound 0.1 µM, first compound 0.001 µM
[8] = second compound 0.1 µM, first compound 0.00316 µM
[9] = second compound 0.1 µM, first compound 0.01 µM
[10] = second compound 0.1 µM, first compound 0.0316 µM
[11] = second compound 0.1 µM, first compound 0.1 µM
[12] = second compound 0.316 µM, first compound 0.000316 µM
[13] = second compound 0.316 µM, first compound 0.001 µM
[14] = second compound 0.316 µM, first compound 0.00316 µM
[15] = second compound 0.316 µM, first compound 0.01 µM
[16] = second compound 0.316 µM, first compound 0.0316 µM
[17] = second compound 0.316 µM, first compound 0.1 µM
[18] = second compound 1 µM, first compound 0.000316 µM
[19] = second compound 1 µM, first compound 0.001 µM
[20] = second compound 1 µM, first compound 0.00316 µM
[21] = second compound 1 µM, first compound 0.01 µM
[22] = second compound 1 µM, first compound 0.0316 µM
[23] = second compound 1 µM, first compound 0.1 µM
[24] = second compound 3.16 µM, first compound 0.000316 µM
[25] = second compound 3.16 µM, first compound 0.001 µM
[26] = second compound 3.16 µM, first compound 0.00316 µM
[27] = second compound 3.16 µM, first compound 0.01 µM
[28] = second compound 3.16 µM, first compound 0.0316 µM
[29] = second compound 3.16 µM, first compound 0.1 µM
[30] = second compound 10 µM, first compound 0.000316 µM
[31] = second compound 10 µM, first compound 0.001 µM
[32] = second compound 10 µM, first compound 0.00316 µM
[33] = second compound 10 µM, first compound 0.01 µM
[34] = second compound 10 µM, first compound 0.0316 µM
[35] = second compound 10 µM, first compound 0.1 µM
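Further: compound exposure lasted seven days before readout.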

CN(C)C/C=C/C(=O)Nc1cc2c(Nc3ccc(F)c(Cl)c3)ncnc2cc1O[C@H]1CCOC1 + COc1cc2nc(C)nc(NC(C)c3cc(N)cc(C(F)(F)F)c3)c2cc1OC1CCOC1
81.3 nM: IC50 [4]
> 100 nM: IC50 [1] | IC50 [2] | IC50 [3] | IC50 [5]
inactive: viability, T/C [6] 87% | viability, T/C [7] 91.3% | viability, T/C [8] 92.7% | viability, T/C [9] 92.6% | viability, T/C [10] 78.7% | viability, T/C [11] 81.2% | viability, T/C [12] 93% | viability, T/C [13] 73.7% | viability, T/C [14] 73.4% | viability, T/C [15] 73.5% | viability, T/C [16] 90.8% | viability, T/C [17] 98.9% | viability, T/C [18] 138% | viability, T/C [19] 146% | viability, T/C [20] 101% | viability, T/C [21] 101% | viability, T/C [22] 95.5% | viability, T/C [23] 91.2% | viability, T/C [24] 85.6% | viability, T/C [25] 80.7% | viability, T/C [26] 90.3% | viability, T/C [27] 88.3% | viability, T/C [28] 75.5% | viability, T/C [29] 44.5% | viability, T/C [30] 73.2% | viability, T/C [31] 62.5% | viability, T/C [32] 76.9% | viability, T/C [33] 88.3% | viability, T/C [34] 70.3% | viability, T/C [35] 62.3%

Cn1ncnc1[C@H]1c2n[nH]c(=O)c3cc(F)cc(c23)N[C@@H]1c1ccc(F)cc1 + CC1OCC2(CCN(c3cnc(Sc4ccnc(N)c4Cl)c(N)n3)CC2)C1N
> 100 nM: IC50 [1] | IC50 [2] | IC50 [3] | IC50 [4] | IC50 [5]
inactive: viability, T/C [6] 81.5% | viability, T/C [7] 81.4% | viability, T/C [8] 91.9% | viability, T/C [9] 88.9% | viability, T/C [10] 81.5% | viability, T/C [11] 101% | viability, T/C [12] 68% | viability, T/C [13] 87.3% | viability, T/C [14] 77% | viability, T/C [15] 56.7% | viability, T/C [16] 77.3% | viability, T/C [17] 80.2% | viability, T/C [18] 99.4% | viability, T/C [19] 58.1% | viability, T/C [20] 82.4% | viability, T/C [21] 65.5% | viability, T/C [22] 59.1% | viability, T/C [23] 82.9% | viability, T/C [24] 57.1% | viability, T/C [25] 49.4% | viability, T/C [26] 59.5% | viability, T/C [27] 53.7% | viability, T/C [28] 59.9% | viability, T/C [29] 75.1% | viability, T/C [30] 62% | viability, T/C [31] 68.4% | viability, T/C [32] 84.7% | viability, T/C [33] 65.7% | viability, T/C [34] 65.4% | viability, T/C [35] 65.8%

CCN1CCN(Cc2ccc(Nc3ncc(F)c(-c4cc(F)c5nc(C)n(C(C)C)c5c4)n3)nc2)CC1 + COc1cc2nc(C)nc(NC(C)c3cc(N)cc(C(F)(F)F)c3)c2cc1OC1CCOC1
inactive: viability, T/C [8] 76.9% | viability, T/C [9] 78.5% | viability, T/C [10] 77.2% | viability, T/C [11] 74.5% | viability, T/C (second compound 0.1 µM, first compound 0.316 µM) 62.1% | viability, T/C (second compound 0.1 µM, first compound 1 µM) 34.7% | viability, T/C [14] 83.8% | viability, T/C [15] 56% | viability, T/C [16] 72.3% | viability, T/C [17] 98.2% | viability, T/C (second compound 0.316 µM, first compound 0.316 µM) 54.8% | viability, T/C (second compound 0.316 µM, first compound 1 µM) 29% | viability, T/C [20] 51.5% | viability, T/C [21] 80.2% | viability, T/C [22] 77.6% | viability, T/C [23] 61.8% | viability, T/C (second compound 1 µM, first compound 0.316 µM) 55.1% | viability, T/C (second compound 1 µM, first compound 1 µM) 30.1% | viability, T/C [26] 69.3% | viability, T/C [27] 51% | viability, T/C [28] 48.9% | viability, T/C [29] 67.2% | viability, T/C (second compound 3.16 µM, first compound 0.316 µM) 73.8% | viability, T/C (second compound 3.16 µM, first compound 1 µM) 27.4% | viability, T/C [32] 84% | viability, T/C [33] 58% | viability, T/C [34] 64.8% | viability, T/C [35] 38.3% | viability, T/C (second compound 10 µM, first compound 0.316 µM) 20.2% | viability, T/C (second compound 10 µM, first compound 1 µM) 19.4%
391 nM: IC50 [2] | IC50 [3]
526 nM: IC50 [1]
44.6 nM: IC50 [5]
471 nM: IC50 [4]

CC(C)NCC(C(=O)N1CCN(c2ncnc3c2C(C)CC3O)CC1)c1ccc(Cl)cc1 (centres undefined)
> 10000 nM: IC50 (curve of compound)
inactive: viability, T/C (compound 0.316 µM) 96.2% [middle of 5 runs] | viability, T/C (compound 1 µM) 89.7% [middle of 5 runs] | viability, T/C (compound 10 µM) 97.3% [middle of 5 runs]
